The results in this text go back to US20260200926A1, “TREM2 MODULATORS” (Muna Therapeutics ApS, priority 2022, published 2026).

What is called Emax is the greatest response seen or fitted, relative to the assay's reference. The term EC50 denotes the concentration giving half of the maximal effect.

Like-named read-outs stand apart in the source and are kept apart here.

The target in this assay is T1, Human TREM2 (Homo sapiens, UniProt Q9NZC2).
T1 construct: expressed in transfected cells
As to the kind of experiment: Human TREM2 activity: cellular phosphorylation of Syk (AlphaLISA SureFire Ultra p-SYK) in HEK293/DAP12+TREM2 stable cell line. In kind it is cell-based. The settings on record: for Emax: maximal response relative to reference agonist example 1B (remaining examples). The method in brief: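 The read-out was p-Syk (Tyr525/526), measured by AlphaLISA in lysates of a stable HEK293/DAP12+TREM2 clone. Cells (10,000/well, plated the day before) received compound for 30 min at 37 °C. Dosing used 8 points in quadruplicate, top 100 μM with 1:6 dilution, 0.5% final DMSO.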
In general terms: Alpha assays give light when donor and acceptor beads are brought close together.

The mark [1] stands for this setting: phospho-Syk AlphaLISA signal, HEK293/DAP12+TREM2 cells, concentration giving 50% of maximal response, read-out: EC50.

T1 sequence (Q9NZC2 19-230): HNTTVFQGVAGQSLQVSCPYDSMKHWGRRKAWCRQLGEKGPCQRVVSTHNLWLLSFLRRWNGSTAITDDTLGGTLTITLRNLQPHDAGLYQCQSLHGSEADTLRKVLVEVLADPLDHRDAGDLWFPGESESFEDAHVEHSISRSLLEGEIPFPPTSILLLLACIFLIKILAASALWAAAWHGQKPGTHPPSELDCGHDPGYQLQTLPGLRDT
T1 sequence (O43914 22-113 partner): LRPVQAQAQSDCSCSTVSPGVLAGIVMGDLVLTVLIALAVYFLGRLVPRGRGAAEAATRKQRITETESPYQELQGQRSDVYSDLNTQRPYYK

Take `Cc1nc2c(-c3ccc(Cl)cc3F)nc(N3CC(c4cnn(C)c4)OC4(CCC4)C3)nc2c(=O)n1C` (stereo not drawn) [Example 90, 8-(4-chloro-2-fluorophenyl)-2,3-dimethyl-6-(6-(1-methyl-1H-pyrazol-4-yl)-5-oxa-8-azaspiro(3,5)nonan-8-yl)pyrimido(5,4-d)pyrimidin-4 (3H)-one]: the Emax (HEK293, read-out: Emax) lay within 75 to 110%. Also, the EC50 under setting [1] was 1 to 10 nM.

For `Cn1c(C(F)(F)F)nc2c(-c3ccc(F)cc3F)nc(C3CCOC(c4cnn(C5CC5)c4)C3)c(F)c2c1=O` (stereo not drawn) [Example 167, 6-(2-(1-cyclopropyl-1H-pyrazol-4-yl)tetrahydro-2H-pyran-4-yl)-8-(2,4-difluorophenyl)-5-fluoro-3-methyl-2-(trifluoromethyl) pyrido[3,4-d]pyrimidin-4 (3H)-one], the Emax (HEK293, read-out: Emax) is less than 75%. Also, the EC50 under setting [1] lay in the range of 100 to 1000 nM.

On to `Cc1cc([C@H]2CN(c3cc4c(=O)n(C)c(C)nc4c(-c4ccc(F)cc4F)n3)CC(F)(F)O2)ccn1` (single isomer, unassigned) [Example 171B], for which, where the note is “HEK293, read-out: Emax”, the Emax is less than 75%. The EC50 under setting [1] lay within 100 to 1000 nM.

As for `Cc1nc2c(-c3ccc(Cl)cc3F)nc(N3C[C@@H](c4cnn(C)c4)OC4(CC4)C3)c(F)c2c(=O)n1C` (single isomer, unassigned) [Example 173A], under “HEK293, read-out: Emax”, the Emax is less than 75%. In addition, the EC50 under setting [1] was in the range of 10 to 100 nM.

As to `Cc1nc2c(-c3ccc(Cl)cc3F)nc(N3CCOC4(CCc5ccccc54)C3)nc2c(=O)n1C` (stereo not drawn) [Example 85, 8-(4-chloro-2-fluorophenyl)-6-(2,3-dihydrospiro[indene-1,2′-morpholin]-4′-yl)-2,3-dimethylpyrimido[5,4-d]pyrimidin-4(3H)-one], the maximal effect (Emax) (HEK293, read-out: Emax) was less than 75%. The EC50 under setting [1] was greater than 1000 nM.

On to `Cc1nc2c(-c3ccc(F)cc3F)nc(N3C[C@@H](c4cnn(C5CC5)c4)O[C@@H](C)C3)nc2c(=O)n1C` (single isomer, unassigned) [Example 177A], for which, for the setting “HEK293, read-out: Emax”, the Emax was less than 75%. Moreover, the EC50 under setting [1] lay in the range of 10 to 100 nM.

For `Cc1cnccc1OC1CCN(c2nc(-c3ccc(Cl)cc3F)c3nc(C)n(C)c(=O)c3n2)CC1` [Example 84, 8-(4-chloro-2-fluorophenyl)-2,3-dimethyl-6-(4-((3-methylpyridin-4-yl)oxy)piperidin-1-yl)pyrimido[5,4-d]pyrimidin-4(3H)-one], the Emax (HEK293, read-out: Emax) was less than 75%. The EC50 under setting [1] lay within 100 to 1000 nM.

Take `Cc1nc2c(-c3cc(F)c(F)cc3F)nc(N3CCO[C@H](c4cnn(C5CC5)c4)C3)cc2c(=O)n1C` (single isomer, unassigned) [Example 133A]: the maximum response (Emax) (HEK293, read-out: Emax) was 75 to 110%. In addition, the EC50 under setting [1] is 10 to 100 nM.

As to `Cc1ncc([C@H]2C[C@@H](c3nc(-c4ccc(Cl)cc4F)c4nc(C)n(C)c(=O)c4n3)CCO2)cn1` (racemic) [Example 37, 8-(4-chloro-2-fluorophenyl)-2,3-dimethyl-6-((2R,4S)-2-(2-methylpyrimidin-5-yl)tetrahydro-2H-pyran-4-yl)pyrimido[5,4-d]pyrimidin-4 (3H)-one], the Emax (HEK293, read-out: Emax) lay within 75 to 110%. Further, the EC50 under setting [1] is 100 to 1000 nM.

In the case of `Cc1nc2c(-c3ccc(Cl)cc3F)nc(N3CCC[C@H](Oc4cnn(C)c4)C3)nc2c(=O)n1C` [Example 75, (S)-8-(4-chloro-2-fluorophenyl)-2,3-dimethyl-6-(3-((1-methyl-1H-pyrazol-4-yl)oxy)piperidin-1-yl)pyrimido[5,4-d]pyrimidin-4 (3H)-one], the Emax (HEK293, read-out: Emax) was less than 75%. In addition, under setting [1], the 50% effective concentration (EC50) was in the range of 100 to 1000 nM.

On to `Cc1nc2c(-c3ccc(C(F)(F)F)cc3F)nc(N3C[C@H](c4cnn(C)c4)OC(C)(C)C3)cc2c(=O)n1C` (single isomer, unassigned) [Example 134B], for which the Emax (HEK293, read-out: Emax) is less than 75%. Further, under setting [1], the EC50 fell in the range of 100 to 1000 nM.

Turning to `Cc1nc2c(-c3ccc(Cl)cc3F)nc(N3CCC(Oc4cnn(C)c4)CC3)nc2c(=O)n1C` [Example 77, 8-(4-chloro-2-fluorophenyl)-2,3-dimethyl-6-(4-((1-methyl-1H-pyrazol-4-yl)oxy)piperidin-1-yl)pyrimido[5,4-d]pyrimidin-4 (3H)-one], the Emax (HEK293, read-out: Emax) is 75 to 110%. Moreover, the EC50 under setting [1] is greater than 1000 nM.

With `Cc1nc2c(-c3ccc(Cl)cc3F)nc(N3CCO[C@@H](c4cnn(C5CC5)c4)C3)nc2c(=O)n1C` (single isomer, unassigned) [Example 26B], the Emax (HEK293, read-out: Emax) lay within 75 to 110%. Further, under setting [1], the EC50 lay within 1 to 10 nM.

As to `Cc1nc2c(-c3ccc(Cl)cc3F)nc(N3CC(COc4cnn(C)c4)C3)nc2c(=O)n1C` [Example 15, 8-(4-chloro-2-fluorophenyl)-2,3-dimethyl-6-(3-(((1-methyl-1H-pyrazol-4-yl)oxy)methyl)azetidin-1-yl)pyrimido[5,4-d]pyrimidin-4 (3H)-one], the Emax (HEK293, read-out: Emax) was less than 75%. Moreover, the EC50 under setting [1] was greater than 1000 nM.

Take `Cc1cc([C@H]2CN(c3cc4c(=O)n(C)c(C)nc4c(-c4ccc(C(F)(F)F)cc4F)n3)CC(C)(C)O2)ccn1` (single isomer, unassigned) [Example 163B]: for the setting “HEK293, read-out: Emax”, the Emax lay in the range of 75 to 110%. Moreover, the EC50 under setting [1] lay in the range of 1 to 10 nM.

Consider `Cc1nc2c(-c3ccc(C(F)(F)F)cc3F)nc(N3CCO[C@H](c4cnn(C)c4)C3)cc2c(=O)n1C` (single isomer, unassigned) [Example 126B], for which the Emax (HEK293, read-out: Emax) is less than 75%. Further, under setting [1], the EC50 lay in the range of 100 to 1000 nM.

On to `Cc1nc2c(-c3cc(F)c(F)c(F)c3)nc(N3CCOC(c4cnn(C)c4)C3)nc2c(=O)n1C` (stereo not drawn) [Example 8, 2,3-dimethyl-6-(2-(1-methyl-1H-pyrazol-4-yl)morpholino)-8-(3,4,5-trifluorophenyl)pyrimido[5,4-d]pyrimidin-4(3H)-one], for which the maximum response (Emax) (HEK293, read-out: Emax) is less than 75%. Also, under setting [1], the EC50 fell in the range of 100 to 1000 nM.

`Cc1nc2c(-c3ccc(C(F)(F)F)cc3F)nc(N3C[C@@H](c4cnn(C5CC5)c4)O[C@@H](C)C3)nc2c(=O)n1C` (single isomer, unassigned) [Example 195A]: the Emax (HEK293, read-out: Emax) was less than 75%. In addition, the EC50 under setting [1] lay in the range of 1 to 10 nM.

As for `Cc1nc2c(-c3ccc(Cl)cc3F)cc(N3C[C@@H](c4cnn(C)c4)OC(C)(C)C3)cc2c(=O)n1C` (single isomer, unassigned) [Example 117A], under “HEK293, read-out: Emax”, the Emax is 75 to 110%. The EC50 under setting [1] was in the range of 10 to 100 nM.

As for `Cc1nc2c(-c3ccc(Cl)cc3F)nc(N3C[C@@H](c4cnn(C)c4)OC(C)(C)C3)cc2c(=O)n1C` (single isomer, unassigned) [Example 112A], the Emax (HEK293, read-out: Emax) was in the range of 75 to 110%. In addition, the EC50 under setting [1] lay in the range of 10 to 100 nM.

For `Cn1c(C(F)(F)F)nc2c(-c3ccc(F)cc3F)nc([C@H]3CCO[C@@H](c4cnn(C5CC5)c4)C3)nc2c1=O` (single isomer, unassigned) [Example 196B], the Emax (HEK293, read-out: Emax) was less than 75%. Besides, under setting [1], the EC50 lay within 10 to 100 nM.

On to `Cc1nc2c(-c3ccc(C(F)(F)F)cc3F)nc([C@H]3CCO[C@@H](c4cnn(C)c4)C3)nc2c(=O)n1C` (single isomer, unassigned) [Example 66], for which the Emax (HEK293, read-out: Emax) lay in the range of 75 to 110%. Under setting [1], the EC50 is greater than 1000 nM.

As for `Cc1nc2c(-c3ccc(Cl)cc3F)nc(N3CCO[C@H](c4cnn(C5CC5)c4)C3)nc2c(=O)n1C` (single isomer, unassigned) [Example 26A], under “HEK293, read-out: Emax”, the Emax lay in the range of 75 to 110%. For the same molecule, under setting [1], the EC50 was in the range of 10 to 100 nM.

On to `Cc1nc2c(-c3ccc(C(F)(F)F)nc3)nc(N3C[C@@H](c4cnn(C)c4)OC(C)(C)C3)nc2c(=O)n1C` (single isomer, unassigned) [Example 102A], for which the maximal effect (Emax) (HEK293, read-out: Emax) was 75 to 110%. Besides, under setting [1], the EC50 fell in the range of 10 to 100 nM.

Consider `Cc1nnc(C2CN(c3nc(-c4ccc(Cl)cc4F)c4nc(C)n(C)c(=O)c4n3)CCO2)o1` (stereo not drawn) [Example 43, 8-(4-chloro-2-fluorophenyl)-2,3-dimethyl-6-(2-(5-methyl-1,3,4-oxadiazol-2-yl)morpholino)pyrimido[5,4-d]pyrimidin-4(3H)-one], for which the Emax (HEK293, read-out: Emax) is less than 75%. Moreover, the EC50 under setting [1] lay in the range of 10 to 100 nM.

Turning to `Cc1cc([C@@H]2CN(c3cc4c(=O)n(C)c(C)nc4c(-c4cc(F)c(F)cc4F)n3)CC(C)(C)O2)ccn1` (single isomer, unassigned) [Example 160A], the Emax (HEK293, read-out: Emax) was in the range of 75 to 110%. The EC50 under setting [1] was 1 to 10 nM.

As for `Cc1nc2c(-c3ccc(C(F)(F)F)nc3)nc(N3CCO[C@H](c4cnn(C)c4)C3)nc2c(=O)n1C` (single isomer, unassigned) [Example 28A], the Emax (HEK293, read-out: Emax) was in the range of 75 to 110%. Further, the EC50 under setting [1] is greater than 1000 nM.

Regarding `Cc1nc2c(-c3ccc(Cl)cc3F)nc(N3CCOC(c4ccn(C)n4)C3)nc2c(=O)n1C` (stereo not drawn) [Example 36, 8-(4-chloro-2-fluorophenyl)-2,3-dimethyl-6-(2-(1-methyl-1H-pyrazol-3-yl)morpholino)pyrimido[5,4-d]pyrimidin-4 (3H)-one], the EC50 lay in the range of 100 to 1000 nM and the Emax result is reported as “++ (75-110%)”.

For `Cc1cc([C@@H]2CN(c3cc4c(=O)n(C)c(C)nc4c(-c4ccc(F)cc4F)n3)C[C@H](C)O2)ccn1` (single isomer, unassigned) [Example 182A], the Emax (HEK293, read-out: Emax) is greater than 110%. Moreover, the EC50 under setting [1] was in the range of 1 to 10 nM.

Consider `Cc1nc2c(-c3ccc(C(F)(F)F)cc3F)nc(N3CCO[C@H](c4cnn(C5CC5)c4)C3)cc2c(=O)n1C` (single isomer, unassigned) [Example 132A], for which, where the note is “HEK293, read-out: Emax”, the Emax lay within 75 to 110%. Further, the EC50 under setting [1] lay within 1 to 10 nM.

In the case of `Cc1nc2c(-c3ccc(Cl)cc3F)nc(N3CCO[C@H](c4cnn(C)c4)C3)nc2c(=O)[nH]1` (single isomer, unassigned) [Example 203A], the Emax (HEK293, read-out: Emax) is less than 75%. The EC50 under setting [1] was 100 to 1000 nM.

As for `Cc1nc2c(-c3ccc(F)cc3F)nc(N3C[C@@H](C)O[C@@H](c4cnn(C5CC5)c4)C3)cc2c(=O)n1C` (single isomer, unassigned) [Example 190B], the maximal response (Emax) (HEK293, read-out: Emax) is less than 75%. Further, under setting [1], the EC50 was 100 to 1000 nM.

With `Cc1cc([C@H]2C[C@@H](c3nc(-c4ccc(Cl)cc4F)c4nc(C)n(C)c(=O)c4n3)CCO2)ccn1` (single isomer, unassigned) [Example 94], the Emax (HEK293, read-out: Emax) fell in the range of 75 to 110%. Under setting [1], the EC50 is 1 to 10 nM.
